Read-outs that look alike come from different tables or passages of the source.
Test system: high fat diet C57 mice
Assay: LDL-C lowering activity in high fat diet C57 mice
Assay type: in vivo
Details: Mus musculus, po, 672 h, C57 mice on high fat diet, orally once a day, dose 30 mg (30 mpk), blood collected on day 28 of treatment
Protocol: LDL-C Lowering Activity—in High Fat Diet C57 Mice
The in-vivo LDL-c lowering for test compound was tested in C57 mice which were kept on high fat diet for 4 weeks and the blood was collected by retro-orbital sinus puncture method under light ether anesthesia on day 0 (pretreatment). Animal are grouped based on LDL-c levels, after that 4-6 week treatment with vehicle or test compound orally at a dose of 30 mpk dose once a day was given. On completion of treatment on day 28 of the treatment the blood was collected for LDL-c and TC levels measurement. The percent change in LDL-c and TC in test compound group Vs Vehicle group was calculated.

[1] = read-out: % Change Vs Vehicle Control LDL-c
[2] = read-out: % Change Vs Vehicle Control TC

## C/C(=N\OCc1ccc(C(F)(F)F)cc1)c1ccc(OCc2nnn[nH]2)cc1 [Example 1, 1-(4-((1H-tetrazol-5-yl)methoxy)phenyl)ethanone O-(4-(trifluoromethyl)benzyl)oxime]
[1]
  change in vivo at 30 mg/kg: -50 ± 4%
[2]
  change in vivo at 30 mg/kg: -24 ± 4%

## C/C(=N\OCc1ccc(C(F)(F)F)cc1)c1ccc(OCc2nnn(C)n2)cc1 [Example 2, 1-(4-((2-Methyl-2H-tetrazol-5-yl)methoxy)phenyl)ethanone O-(4-(trifluoromethyl)benzyl)oxime]
[1]
  change in vivo at 30 mg/kg: -29 ± 6%
[2]
  change in vivo at 30 mg/kg: -14 ± 3%

## C/C(=N\OCc1ccc(C(F)(F)F)cc1)c1ccc(OCc2nnnn2C)cc1 [Example 3, 1-(4-((1-Methyl-H-tetrazol-5-yl)methoxy)phenyl)ethanone O-(4-(trifluoromethyl)benzyl)oxime]
[1]
  change in vivo at 30 mg/kg: -5 ± 8%
[2]
  change in vivo at 30 mg/kg: -1 ± 3%

## CC(=NOCc1ccc(C(F)(F)F)cc1)c1ccc(OCc2nnn[nH]2)nc1 [Example 4, 1-(6-((1H-tetrazol-5-yl)methoxy)pyridin-3-yl)ethanone O-(4-(trifluoromethyl)benzyl)oxime]
[1]
  change in vivo at 30 mg/kg: -66 ± 2%
[2]
  change in vivo at 30 mg/kg: -41 ± 4%

## C/C(=N\OCc1ccc(C(F)(F)F)cc1)c1ccc(OCc2cnn[nH]2)cc1 [Example 6, 1-(4-((1H-1,2,3-triazol-5-yl)methoxy)phenyl)ethanone O-(4-(trifluoromethyl)benzyl)oxime]
[1]
  change in vivo at 30 mg/kg: -30 ± 5%
[2]
  change in vivo at 30 mg/kg: -11 ± 2%

## C/C(=N\OCc1ccc(C(F)(F)F)cc1)c1ccc(OCc2nnc(C)o2)cc1 [Example 7, 1-(4-((5-Methyl-1,3,4-oxadiazol-2-yl)methoxy)phenyl)ethanone O-(4-(trifluoromethyl)benzyl)oxime]
[1]
  change in vivo at 30 mg/kg: -34 ± 7%
[2]
  change in vivo at 30 mg/kg: -10 ± 7%

## C/C(=N\OCc1ccc(C(F)(F)F)cc1)c1ccc(OCc2nnc(C)[nH]2)nc1 [Example 18, 1-(6-((5-Methyl-4H-1,2,4-triazol-3-yl)methoxy)pyridin-3-yl)ethanone O-(4-(trifluoromethyl)benzyl)oxime]
[1]
  change in vivo at 30 mg/kg: -23 ± 6%
[2]
  change in vivo at 30 mg/kg: -11 ± 3%

## C/C(=N\OCc1ccc(C(F)(F)F)cc1)c1ccc(OCc2nnc(N)o2)cc1 [Example 20, 1-(4-((5-Amino-1,3,4-oxadiazol-2-yl)methoxy)phenyl)ethanone O-(4-(trifluoromethyl)benzyl)oxime]
[1]
  change in vivo at 30 mg/kg: -29 ± 5%
[2]
  change in vivo at 30 mg/kg: -13 ± 2%

## C/C(=N\OCc1ccc(C(C)(F)F)cc1)c1ccc(OCc2nnn[nH]2)cc1 [Example 22, 1-(4-((1H-tetrazol-5-yl)methoxy)phenyl)ethanone O-(4-(1,1-difluoroethyl)benzyl)oxime]
[1]
  change in vivo at 30 mg/kg: -61 ± 3%
[2]
  change in vivo at 30 mg/kg: -30 ± 3%

## COc1cc(CO/N=C(\C)c2ccc(OCc3nnn[nH]3)cc2)ccc1C(F)(F)F [Example 25, 1-(4-((1H-tetrazol-5-yl)methoxy)phenyl)ethanone O-(3-methoxy-4-(trifluoromethyl)benzyl)oxime]
[1]
  change in vivo at 30 mg/kg: -54 ± 3%
[2]
  change in vivo at 30 mg/kg: -21 ± 2%

## C/C(=N\OCc1ccc(C(F)(F)F)cc1)c1ccc(OCc2nnn[nH]2)cc1O [Example 27, 1-(4-((1H-tetrazol-5-yl)methoxy)-2-hydroxyphenyl) ethanone O-(4-(trifluoromethyl)benzyl)oxime]
[1]
  change in vivo at 30 mg/kg: -50 ± 5%
[2]
  change in vivo at 30 mg/kg: -25 ± 3%

## C/C(=N\OCc1ccc(C(F)(F)F)cc1)c1ccc(OCc2nnnn2C)cc1O [Example 29, 1-(2-Hydroxy-4-((1-methyl-1H-tetrazol-5-yl)methoxy)phenyl)ethanone O-(4-(trifluoromethyl)benzyl)oxime]
[1]
  change in vivo at 30 mg/kg: -14 ± 6%
[2]
  change in vivo at 30 mg/kg: -5 ± 3%

## C/C(=N\OCc1ccc(F)cc1)c1ccc(OCc2nnn[nH]2)cc1 [Example 31, 1-(4-((1H-tetrazol-5-yl)methoxy)phenyl)ethanone O-(4-fluorobenzyl)oxime]
[1]
  change in vivo at 30 mg/kg: -26 ± 10%
[2]
  change in vivo at 30 mg/kg: -7 ± 4%

## C/C(=N\OCc1ccc(C(F)(F)F)cc1)c1ccc(OCc2nnn[nH]2)nc1Cl [Example 36, 1-(6-((1H-tetrazol-5-yl)methoxy)-2-chloropyridin-3-yl)ethanone O-(4-(trifluoromethyl)benzyl)oxime]
[1]
  change in vivo at 30 mg/kg: -39 ± 5%
[2]
  change in vivo at 30 mg/kg: -12 ± 3%

## CCn1nnc(COc2ccc(/C(C)=N/OCc3ccc(C(F)(F)F)cc3)cc2)n1 [Example 41, 1-(4-((2-Ethyl-2H-tetrazol-5-yl)methoxy)phenyl)ethanone O-(4-(trifluoromethyl)benzyl)oxime]
[1]
  change in vivo at 30 mg/kg: -36 ± 6%
[2]
  change in vivo at 30 mg/kg: -11 ± 5%

## CCn1nnnc1COc1ccc(/C(C)=N/OCc2ccc(C(F)(F)F)cc2)cc1 [Example 42, 1-(4-((1-Ethyl-2H-tetrazol-5-yl)methoxy)phenyl)ethanone O-(4-(trifluoromethyl)benzyl)oxime]
[1]
  change in vivo at 30 mg/kg: -22 ± 9%
[2]
  change in vivo at 30 mg/kg: 1 ± 6%

## C/C(=N\OCc1ccc(C(C)(F)F)cc1)c1ccc(OCc2nnn[nH]2)nc1 [Example 43, 1-(6-((1H-tetrazol-5-yl)methoxy)pyridin-3-yl) ethanone O-(4-(1,1-difluoroethyl)benzyl)oxime]
[1]
  change in vivo at 30 mg/kg: -67 ± 1%
[2]
  change in vivo at 30 mg/kg: -38 ± 2%

## CCn1nnc(COc2ccc(/C(C)=N/OCc3ccc(C(C)(F)F)cc3)cn2)n1 [Example 44, 1-(6-((2-Ethyl-2H-tetrazol-5-yl)methoxy)pyridin-3-yl)ethanone O-(4-(1,1-difluoroethyl)benzyl)oxime]
[1]
  change in vivo at 30 mg/kg: -50 ± 5%
[2]
  change in vivo at 30 mg/kg: -17 ± 3%

## CCn1nnc(COc2ccc(/C(C)=N/OCc3ccc(C(F)(F)F)cc3)cn2)n1 [Example 46, 1-(6-((2-Ethyl-2H-tetrazol-5-yl)methoxy)pyridin-3-yl)ethanone O-(4-(trifluoromethyl)benzyl)oxime]
[1]
  change in vivo at 30 mg/kg: -41 ± 4%
[2]
  change in vivo at 30 mg/kg: -20 ± 2%

## C/C(=N\OCc1ccc(C(F)(F)F)cc1)c1ccc(OCc2nnn(C(C)C)n2)nc1 [Example 48, 1-(6-((2-isoPropyl-2H-tetrazol-5-yl)methoxy)pyridin-3-yl)ethanone O-(4-(trifluoromethyl)benzyl)oxime]
[1]
  change in vivo at 30 mg/kg: -47 ± 7%
[2]
  change in vivo at 30 mg/kg: -17 ± 3%

## C/C(=N\OCc1ccc(C(F)(F)F)cc1)c1ccc(OCc2nnn(CC3CC3)n2)nc1 [Example 50, 1-(6-((2-(Cyclopropylmethyl)-2H-tetrazol-5-yl)methoxy)pyridin-3-yl)ethanone O-(4-(trifluoromethyl)benzyl)oxime]
[1]
  change in vivo at 30 mg/kg: -47 ± 4%
[2]
  change in vivo at 30 mg/kg: -18 ± 3%

## C/C(=N\OCc1ccc(C(F)(F)F)cc1)c1ccc(OCc2nnn(CC3CCCCC3)n2)nc1 [Example 52, 1-(6-((2-(Cyclohexylmethyl)-2H-tetrazol-5-yl)methoxy)pyridin-3-yl)ethanone O-(4-(trifluoromethyl)benzyl)oxime]
[1]
  change in vivo at 30 mg/kg: -18 ± 11%
[2]
  change in vivo at 30 mg/kg: -2 ± 5%

## C/C(=N\OCc1ccc(C(F)(F)F)cc1)c1ccc(OCc2nnnn2CC(=O)O)nc1 [Example 56, 2-(5-(((5-(1-(((4-(Trifluoromethyl)benzyl)oxy)imino)ethyl)pyridin-2-yl)oxy)methyl)-1H-tetrazol-1-yl)acetic acid]
[1]
  change in vivo at 30 mg/kg: -22 ± 5%
[2]
  change in vivo at 30 mg/kg: -16 ± 4%

## C/C(=N\OCc1ccc(C(C)(F)F)cc1)c1ccc(OCc2nnn(C(C)C)n2)nc1 [Example 58, 1-(6-((2-isoPropyl-2H-tetrazol-5-yl)methoxy)pyridin-3-yl)ethanone O-(4-(1,1-difluoroethyl)benzyl)oxime]
[1]
  change in vivo at 30 mg/kg: -36 ± 6%
[2]
  change in vivo at 30 mg/kg: -7 ± 2%

## C/C(=N\OCc1ccc(C(C)(F)F)cc1)c1ccc(OCc2nnn(CC3CC3)n2)nc1 [Example 60, 1-(6-((2-(Cyclopropylmethyl)-2H-tetrazol-5-yl)methoxy)pyridin-3-yl)ethanone O-(4-(1,1-difluoroethyl)benzyl)oxime]
[1]
  change in vivo at 30 mg/kg: -49 ± 3%
[2]
  change in vivo at 30 mg/kg: -17 ± 3%

Source: patent US20160083380A1, “OXIMINO DERIVATIVES FOR THE TREATMENT OF DYSLIPIDEMIA” (CADILA HEALTHCARE LIMITED, priority 2013, published 2016)
